Results on seven molecules are retold here after patent US10647747B2, “Cyclosporin derivatives and uses thereof” (S&T Global Inc., priority 2010, dated 2020).

The data set in a line: Stability testing: epimerization of cyclosporin derivatives in methanol, monitored by HPLC. Format: physicochemical. As to conditions: for Epimerization % after 168 hours: Table 11, MeOH at 50° C.-58° C.; for Epimerization %: Table 10, MeOH at 50° C.

*1 amine or outer side, *2 acyl side, *3 side chain or, on linkers, in order; H or OH if unused. Where a SMILES comes first, the peptide text is derived from it. [ ]: non-standard residue; d: D form. ξ: configuration not given here. MeBmt = C/C=C/C[C@@H](C)[C@@H](O)[C@H](NC)C(=O)O; X1 = CN([C@H](SCCCN1CCOCC1)C(=O)[*:2])[*:1]; NMeIle(3ξ) = CCC(C)[C@H](NC)C(=O)O; NMeL = CN[C@@H](CC(C)C)C(=O)O; NMeV = CN[C@H](C(=O)O)C(C)C; Abu = CC[C@H](N)C(=O)O

As to `C/C=C/C[C@@H](C)[C@@H](O)[C@H]1C(=O)N[C@@H](CC)C(=O)N(C)[C@H](CSCCCN(C)C)C(=O)N(C)[C@@H](CC(C)(C)O)C(=O)N[C@@H](C(C)C)C(=O)N(C)[C@@H](CC(C)C)C(=O)N[C@@H](C)C(=O)N[C@H](C)C(=O)N(C)[C@@H](CC(C)C)C(=O)N(C)[C@@H](CC(C)C)C(=O)N(C)[C@@H](C(C)C)C(=O)N1C`, the “Epimerization % after 168 hours” value amounted to 0%.
Turning to `C/C=C/C[C@@H](C)[C@@H](O)[C@H]1C(=O)N[C@@H](CC)C(=O)N(C)[C@H](SCCN(C)C)C(=O)N(C)[C@@H](CC(C)C)C(=O)N[C@@H](C(C)C)C(=O)N(C)[C@@H](CC(C)C)C(=O)N[C@@H](C)C(=O)N[C@H](C)C(=O)N(C)[C@@H](CC(C)C)C(=O)N(C)[C@@H](CC(C)C)C(=O)N(C)[C@@H](C(C)C)C(=O)N1C` [drawing 1933], the Epimerization % runs as follows: (29 hours) roughly 26%; (77 hours) roughly 32%; (125 hours) roughly 35%.
On the same counts, the results for `C/C=C/C[C@@H](C)[C@@H](O)[C@H]1C(=O)N[C@@H](CC)C(=O)N(C)[C@H](SCCCN(CC)CC)C(=O)N(C)[C@@H](CC(C)(C)OC)C(=O)N[C@@H](C(C)C)C(=O)N(C)[C@@H](CC(C)C)C(=O)N[C@@H](C)C(=O)N[C@H](C)C(=O)N(C)[C@@H](CC(C)C)C(=O)N(C)[C@@H](CC(C)C)C(=O)N(C)[C@@H](C(C)C)C(=O)N1C` are 0%, 0% and 0%.
On to `C/C=C/C[C@@H](C)[C@@H](O)[C@H]1C(=O)N[C@@H](CC)C(=O)N(C)[C@H](SCCCN2CCOCC2)C(=O)N(C)[C@@H](CC(C)(C)OC)C(=O)N[C@@H](C(C)C)C(=O)N(C)[C@@H](CC(C)C)C(=O)N[C@@H](C)C(=O)N[C@H](C)C(=O)N(C)[C@@H](CC(C)C)C(=O)N(C)[C@@H](CC(C)C)C(=O)N(C)[C@@H](C(C)C)C(=O)N1C` [drawing 1937], for which the Epimerization % by setting is: (29 hours) 0%; (77 hours) 0%; (125 hours) 0%.
Regarding `C/C=C/C[C@@H](C)[C@@H](O)[C@H]1C(=O)N[C@@H](CC)C(=O)N(C)[C@H](SCCCN2CCOCC2)C(=O)N(C)[C@@H](C(C)C)C(=O)N[C@@H](C(C)C)C(=O)N(C)[C@@H](CC(C)C)C(=O)N[C@@H](C)C(=O)N[C@H](C)C(=O)N(C)[C@@H](CC(C)C)C(=O)N(C)[C@@H](CC(C)C)C(=O)N(C)[C@@H](C(C)C)C(=O)N1C` (cyclo(A[dA][NMeL][NMeL][NMeV][MeBmt][Abu][X1][NMeV]V[NMeL])), the Epimerization % reads like this: (29 hours) 0%; (77 hours) 0%; (125 hours) 0%.
Regarding `C/C=C/C[C@@H](C)[C@@H](O)[C@H]1C(=O)N[C@@H](CC)C(=O)N(C)[C@H](SCCCN2CCOCC2)C(=O)N(C)[C@@H](C(C)CC)C(=O)N[C@@H](C(C)C)C(=O)N(C)[C@@H](CC(C)C)C(=O)N[C@@H](C)C(=O)N[C@H](C)C(=O)N(C)[C@@H](CC(C)C)C(=O)N(C)[C@@H](CC(C)C)C(=O)N(C)[C@@H](C(C)C)C(=O)N1C` (some centres unmarked) (cyclo(A[dA][NMeL][NMeL][NMeV][MeBmt][Abu][X1][NMeIle(3ξ)]V[NMeL])), the Epimerization % was 0% (29 hours), 0% (77 hours) and 0% (125 hours).
`C/C=C/C[C@@H](C)[C@@H](O)[C@H]1C(=O)N[C@@H](CC)C(=O)N(C)[C@H](CSCCCN(CC)CC)C(=O)N(C)[C@@H](CC(C)(C)O)C(=O)N[C@@H](C(C)C)C(=O)N(C)[C@@H](CC(C)C)C(=O)N[C@@H](C)C(=O)N[C@H](C)C(=O)N(C)[C@@H](CC(C)C)C(=O)N(C)[C@@H](CC(C)C)C(=O)N(C)[C@@H](C(C)C)C(=O)N1C`: the “Epimerization % after 168 hours” value is given as 0%.
